The source of these data is patent publication US11844801B2, “Oral compositions of MK2 pathway inhibitor for treatment of immune conditions” (priority 2020, dated 2023).

In brackets after ≈: the same amount, converted by molar mass. Several values for one entry are separate records, joined by “and”; a condition that tells them apart may be missing. Identical values can stand only once. Like-named read-outs stand apart in the source and are kept apart here.

One data set concerns IL-1β. In words: Ex vivo LPS-stimulated IL-1β in blood of dosed healthy subjects, PK/PD inhibitory Emax model. Details: species or system human. How it is done:
Blood samples of 10 mL were collected for PD analysis. For the SAD cohorts, blood was collected before dosing and 1, 12, and 24 hours after dosing. For the MAD cohorts, on day 1 blood was collected before the morning dose and 4 and 12 hours after the morning dose (prior to the evening dose); on day 7, blood was collected before the morning dose and 4 and 12 hours after the morning dose.
Additional details of the assays for analyzing p-HSP27 and cytokines are included in the Supplementary Information.
Pharmacodynamics. PD data analysis was conducted using Microsoft Excel 2010 (Microsoft, Redmond, WA), Meso Scale Discovery Workbench® analysis software (Rockville, MD), and Phoenix WinNonlin, version 8.2.
Sample Preparation for Cytokine Analysis. For each sample, 180 μL aliquots were transferred into 7 wells of a round bottom 96 well tissue culture polystyrene low evaporation plate. […] No outer wells on the plates were used and all wells surrounding the samples contained 200 μL of phosphate buffered saline.
DMSO was added to all wells in groups ‘A’ and ‘C’ to a final concentration of 0.1% ([…] of a 2% DMSO solution in DMEM containing 10% FBS and 1% penicillin/streptomycin/glutamine). […] Samples were mixed gently for 30 seconds on a plate shaker using pin tools, then placed in an incubator at 37° C./5% CO2 for 1 hour.
Samples in groups ‘A’ and ‘B’ were stimulated with lipopolysaccharide at a final concentration of 100 ng/mL. A stock solution of lipopolysaccharide at 1 mg/mL in DMEM containing 10% FBS and 1% penicillin/streptomycin was diluted to […] in DMEM containing 10% FBS and 1% penicillin/streptomycin, and […] of this working solution was added per well of blood for all samples in groups ‘A’ and ‘B’. […] of DMEM containing 10% FBS only was added per well of blood for all samples in group ‘C’ (unstimulated samples). Samples were mixed gently for 30 seconds on a plate shaker using pin tools, then placed in an incubator at 37° C./5% CO2 for 5 hours.
Following the incubation, the plates were removed from the incubator and sealed with adhesive clear plate seals. The plates were then centrifuged for 10 minutes at 1800×g at room temperature. […] of plasma was removed from each well and transferred to a 96-well polypropylene round bottom master plate, which was then sealed and frozen at −80° C. until all samples from the respective cohort were generated. Once all samples from a given cohort were generated, the samples were analyzed for cytokine (TNF-α, IL-1b, IL-6, and IL-8) production using Meso Scale Discovery Technology.
Analysis of Cytokine Levels Using Meso Scale Discovery Technology. All lipopolysaccharide plasma samples were analyzed for cytokine production with a V-Plex Human Proinflammatory Panel II (4-Plex) Kit from Meso Scale Discovery (Rockville, MD). The master plates containing the plasma samples were thawed on ice, and a daughter plate consisting of a 25-fold dilution of each plasma sample (3 μL of plasma plus 72 μL of Meso Scale Discovery Diluent 2) was generated for each master plate. The diluted plasma samples from the daughter plates were used in the cytokine analysis. The Meso Scale Discovery 4-plex plates were washed 3 times with 150 μL/well of wash buffer (1×KPL phosphate buffered saline with Tween 20 from SeraCare [Milford, MA]). Prepared calibrators and the samples from the daughter plates were added to the washed Meso Scale Discovery 4-plex plates at 50 μL/well. The 4-plex plates were sealed and shaken overnight at 4° C.
After the overnight incubation, the samples were removed by decanting. The 4-plex plates were then washed 3 times with 150 μL/well of wash buffer. […]

A further data set relates to IL-10. In words: Ex vivo stimulated IL-10 in blood of subjects dosed 80 mg or 120 mg. Details: species or system human. Particulars: 80 mg or 120 mg BID.
A short description of data set [1]: 13-week oral administration non-clinical safety study, rat. The format is in vivo. Particulars: for Cmax / AUC(0-t): 30 mg/kg/day oral; for AUC(0-t): read-out: AUC0-24. How it is done:
Study Design. […] Rats were administered 0 (vehicle), 3, 10 and 30 mg/kg/day, and Mini-pigs were administered 0 (vehicle) 10, 30 and 60 mg/kg/day

The subject of data set [2] is IP10, IFNγ, IL-6, IL-8 and TNF-α. In words: Poly(I:C) (TLR3) stimulated cytokines and chemokines in human whole blood. The format is cell-based. The note with it: poly(I:C) 100 μg/mL, 24 hours. How it is done: Human whole blood assays were performed as described above with the exceptions listed below. […] Compounds were serially diluted in 100% DMSO (Sigma-Aldrich, D2650) followed by a 25× dilution into DMEM/10% FBS (Gibco, 11965/26140). After the one-hour incubation with the compounds or vehicle, 20 μL of poly(I:C) (InvivoGen, HMW, tlrl-pic), in DPBS (Gibco, 14190-136) was added for a final concentration of 100 μg/mL to each well except for the no stimulus wells. After twenty-four hours of incubation with poly(I:C), plasma was harvested and assayed for IP10, IFNγ, IL-6, IL-8 and TNF-α using Meso Scale Discovery Technology V-plex human cytokine kits according to the kit protocol.

In data set [3] the test system is TNF-α, IL-1β, IL-6 and IL-8. In words: R848 (TLR7/TLR8) stimulated cytokines and chemokines in human whole blood. The note with it: 5 h, R848 0.5 μg/mL, five hours. The format is cell-based. How it is done:
Human whole blood assays were performed as described above with the exceptions listed below. […] Compounds were serially diluted in 100% DMSO (Sigma-Aldrich, D2650) followed by a 10× dilution into RPMI (Gibco, 11875). After the one-hour incubation with the compounds or vehicle, 2 μL of R848 (InvivoGen, tlrl-r848) in RPMI (Gibco, 11875) was added for a final concentration of 0.5 μg/mL to each well except for the no stimulus wells. After five hours of incubation with R848, plasma was harvested and assayed for TNF-α, IL-1β, IL-6 and IL-8 using Meso Scale Discovery Technology V-plex human cytokine kits according to the kit protocol.

Another data set has as its system TNF-α. The experiment in a line: IL-1β stimulated TNF-α production in human whole blood. The format is cell-based. How it is done: Compounds were serially diluted in 100% DMSO (Sigma-Aldrich, D2650) followed by a 10× dilution into RPMI (Gibco, 11875). After the one-hour incubation with the compounds or vehicle, 2 μL of IL-1β (R&D, 201-LB-010) in RPMI (Gibco, 11875) was added for a final concentration of 0.5 μg/mL to each well except for the no stimulus wells. […]

For another data set, the system named is IL-17A. The experiment in a line: IL-17A production in CD4+ cells cultured under TH17 skewing conditions. The format is cell-based, human. How it is done:
CD4+ cells were cultured for 3 days under TH17 skewing conditions (anti-CD3, anti-CD28, anti-IL-4, anti-IFNγ, rIL-6, rIL-23, rTGFβ). On day 3, cells were harvested, washed, re-plated, and treated with compound or DMSO only. […] After 18-20 hours, supernatants were collected and assayed for IL-17A levels using MSD.

[4] abbreviates: female, rat, in vivo, study day 88, females.
[5] abbreviates: male, rat, in vivo, study day 88, males.

Description for IL-10: Methods: Safety, pharmacokinetics (PK) and pharmacodynamics (PD) were assessed in two cohorts of subjects in a randomized, observer-blind, placebo-controlled study in male and female healthy subjects aged 18-55 (n=77). The study consisted of twenty (20) subjects enrolled into 2 cohorts. […] The final dose was administered in the morning on Day 7. Blood samples were obtained Day 1—before dosing, Day 1—4 hours after dosing and Day 1—12 hours after dosing and Day 7—before dosing, Day 7—4 hours after dosing, day 7—12 hour after dosing and Day 7—24 hours after dosing for each subject.

With `Cc1cnc(-c2ccnc(C(C)(C)O)n2)cc1-n1c(C)cc(OCc2ncc(F)cc2F)c(Cl)c1=O` (single isomer, unassigned) [ATI-450, 3-chloro-4-((3,5-difluoropyridin-2-yl)methoxy)-2′-(2-(2-hydroxypropan-2-yl)pyrimidin-4-yl)-5′,6-dimethyl-2H-[1,4′-bipyridin]-2-one], the “IL-1β inhibition versus baseline” value in the data set with IL-1β (50 mg BID MAD cohort) is given as at most 83.0%. The “Cmax (Multiple of IC80)” value in the data set with IL-1β (50 mg BID, day 7) worked out at 5.4x. The “Ctrough (Multiple of IC80)” value in the data set with IL-1β (50 mg BID, day 7) worked out at 2.2x. The IC80 with IL-1β (Homo sapiens, calculated from IC50, combined SAD and MAD data, read-out: IC80, plasma concentration at 80% of maximal inhibition) was 0.0408 µg/mL; with TNF-α (human whole blood), 0.031 ± 0.006 µg/mL (≈ 0.0603 µM). The IC50 was 0.0102 µg/mL in the data set on IL-1β (Homo sapiens, inhibitory Emax model, combined SAD and MAD data, read-out: IC50, plasma concentration at half maximal inhibition); 10 to 100 nM in data set [2]; about 100 nM in data set [3]; 12.2 ± 4 nM in the data set with TNF-α (Human Whole Blood, IL-1β, 10 ng/mL, 5 hr). Further, the “IC80, plasma concentration at 80% of maximal inhibition” value in the data set with IL-1β (calculated from IC50, combined SAD and MAD data) was 0.0408 µg/mL. Moreover, the “Imax, maximum percent inhibition” value in the data set on IL-1β (inhibitory Emax model) is 74% and 74.3%. The IL-10 modulation in the data set with IL-10 is 25-30%. Further, in data set [1] (13-week oral), the “non adverse finding, myocytes” value is “Minimal to moderate degeneration of myocytes at all doses, including control animals”. Besides, the mortality result in data set [1] (13-week oral, up to 30 mg/kg/day) is listed as “No study drug-related mortality was observed”. For the same compound, in data set [1] (after 13-week dosing), the “recovery of rat non adverse findings” value is reported as “complete recovery following 28-day non-dosing period”. Moreover, the highest concentration (Cmax) was 5440 ng/mL in data set [1] (setting [4]) and 3260 ng/mL in data set [1] (setting [5]). Moreover, the AUC(0-t) in data set [1] (setting [4]) stood at 43500 ng·h/mL; in data set [1] (setting [5]), 36400 ng·h/mL. Besides, the NOAEL at 13 weeks in data set [1] (rat, in vivo, 13-week oral, read-out: no-observed adverse effect level (NOAEL)) came out at 30 mg/kg/day. For the same compound, the “non adverse finding, nasal area” value in data set [1] (several animals at mid and high dose) is “minimal ulceration/mixed cell inflammation”. For the same compound, the “IL-17 production in CD4+ cells” value with IL-17A is on record as “partially inhibits”.
